Test results published in ChEMBL document CHEMBL4118281, “Azoalkyl ether imidazo[2,1-b]benzothiazoles as potentially antimicrobial agents with novel structural skeleton” (2018).
Values after ≈ are worked out from the molar mass of the structure shown.

Columns and labels:
Salmonella typhi = experiment: Antibacterial activity against Bacillus typhi after 24 hrs by micro broth dilution method; format: functional, Salmonella enterica subsp. enterica serovar Typhi; conditions: Salmonella enterica
Saccharomyces cerevisiae = experiment: Antifungal activity against Beer yeast after 24 hrs by two fold serial dilution based spectrophotometric analysis; format: functional
Cyberlindnera jadinii = experiment: Antifungal activity against Candida utilis after 24 hrs by two fold serial dilution based spectrophotometric analysis; format: functional; conditions: Williopsis jadinii
Aspergillus flavus [1] = experiment: Antifungal activity against Aspergillus flavus after 24 hrs by two fold serial dilution based spectrophotometric analysis; format: functional
Escherichia coli [2] = experiment: Antibacterial activity against Escherichia coli DH52 after 24 hrs by micro broth dilution method; format: functional; conditions: DH52, 24 h
Staphylococcus aureus [3] = experiment: Antibacterial activity against methicillin-resistant Staphylococcus aureus N315 after 24 hrs by micro broth dilution method; format: functional; conditions: N315, 24 h
Shigella dysenteriae [4] = experiment: Antibacterial activity against Shigella dysenteriae after 24 hrs by micro broth dilution method; format: functional
Pichia norvegensis = experiment: Antifungal activity against Candida mycoderma after 24 hrs by two fold serial dilution based spectrophotometric analysis; format: functional
Bacillus = experiment: Antibacterial activity against Bacillus proteus ATCC 13315 after 24 hrs by micro broth dilution method; format: functional; conditions: ATCC 13315, 24 h
Bacillus subtilis = experiment: Antibacterial activity against Bacillus subtilis after 24 hrs by micro broth dilution method; format: functional
Staphylococcus aureus [5] = experiment: Antibacterial activity against Staphylococcus aureus ATCC 25923 after 24 hrs by micro broth dilution method; format: functional; conditions: ATCC 25923, 24 h
Candida albicans = experiment: Antifungal activity against Candida albicans after 24 hrs by two fold serial dilution based spectrophotometric analysis; format: functional
Shigella dysenteriae [6] = experiment: Potency index, ratio of norfloxacin MIC to compound MIC for Shigella dysenteriae; format: functional
Shigella dysenteriae [7] = experiment: Potency index, ratio of chloromycin MIC to compound MIC for Shigella dysenteriae; format: functional
Micrococcus luteus = experiment: Antibacterial activity against Micrococcus luteus ATCC 4698 after 24 hrs by micro broth dilution method; format: functional; conditions: NCTC 2665, 24 h
Aspergillus flavus [8] = experiment: Potency index, ratio of fluconazole MIC to compound MIC for Aspergillus flavus; format: functional
Escherichia coli [9] = experiment: Antibacterial activity against Escherichia coli JM109 after 24 hrs by micro broth dilution method; format: functional; conditions: JM109, 24 h
Pseudomonas aeruginosa = experiment: Antibacterial activity against Pseudomonas aeruginosa after 24 hrs by micro broth dilution method; format: functional
Staphylococcus aureus [10] = experiment: Antibacterial activity against methicillin-resistant Staphylococcus aureus N315 after 4 passages; format: functional
Staphylococcus aureus [11] = experiment: Antibacterial activity against methicillin-resistant Staphylococcus aureus N315 after 2 passages; format: functional
Staphylococcus aureus [12] = experiment: Antibacterial activity against methicillin-resistant Staphylococcus aureus N315 after 8 passages; format: functional
Staphylococcus aureus [13] = experiment: Antibacterial activity against methicillin-resistant Staphylococcus aureus N315 after 5 passages; format: functional
Staphylococcus aureus [14] = experiment: Antibacterial activity against methicillin-resistant Staphylococcus aureus N315 after 1 passage; format: functional
Staphylococcus aureus [15] = experiment: Antibacterial activity against methicillin-resistant Staphylococcus aureus N315 after 3 passages; format: functional
Staphylococcus aureus [16] = experiment: Antibacterial activity against methicillin-resistant Staphylococcus aureus N315 after 7 passages; format: functional
Staphylococcus aureus [17] = experiment: Antibacterial activity against methicillin-resistant Staphylococcus aureus N315 after 6 passages; format: functional

Row | SMILES | MIC (Salmonella typhi) | MIC (Saccharomyces cerevisiae) | MIC (Cyberlindnera jadinii) | MIC (Aspergillus flavus [1]) | MIC (Escherichia coli [2]) | MIC (Staphylococcus aureus [3]) | MIC (Shigella dysenteriae [4]) | MIC (Pichia norvegensis) | MIC (Bacillus) | MIC (Bacillus subtilis) | MIC (Staphylococcus aureus [5]) | MIC (Candida albicans) | MIC (Micrococcus luteus) | MIC (Escherichia coli [9]) | MIC (Pseudomonas aeruginosa) | other results
1 | BrCCCOCc1c(-c2ccccc2)nc2sc3ccccc3n12 | 16 µg/mL (≈ 39.9 µM) | 8 µg/mL (≈ 19.9 µM) | 64 µg/mL (≈ 159 µM) | 4 µg/mL (≈ 9.97 µM) | 16 µg/mL (≈ 39.9 µM) | 8 µg/mL (≈ 19.9 µM) | 4 µg/mL (≈ 9.97 µM) | 32 µg/mL (≈ 79.7 µM) | 16 µg/mL (≈ 39.9 µM) | 4 µg/mL (≈ 9.97 µM) | 32 µg/mL (≈ 79.7 µM) | 4 µg/mL (≈ 9.97 µM) | 32 µg/mL (≈ 79.7 µM) | 32 µg/mL (≈ 79.7 µM) | 8 µg/mL (≈ 19.9 µM) | Ratio (Shigella dysenteriae [6]): 4; Ratio (Shigella dysenteriae [7]): 4; Ratio (Aspergillus flavus [8]): 64
2 | CCOc1ccc2c(c1)sc1nc(-c3ccccc3)c(COCCCBr)n12 | 8 µg/mL (≈ 18 µM) | > 512 µg/mL | > 512 µg/mL | 512 µg/mL (≈ 1150 µM) | > 512 µg/mL | > 512 µg/mL | > 512 µg/mL | > 512 µg/mL | > 512 µg/mL | > 512 µg/mL | > 512 µg/mL | > 512 µg/mL | > 512 µg/mL | > 512 µg/mL | 16 µg/mL (≈ 35.9 µM) | –
3 | O=[N+]([O-])c1cn(CCCOCc2c(-c3ccccc3)nc3sc4ccccc4n23)cn1 | 32 µg/mL (≈ 73.8 µM) | 64 µg/mL (≈ 148 µM) | 128 µg/mL (≈ 295 µM) | 16 µg/mL (≈ 36.9 µM) | 4 µg/mL (≈ 9.23 µM) | 8 µg/mL (≈ 18.5 µM) | 8 µg/mL (≈ 18.5 µM) | 32 µg/mL (≈ 73.8 µM) | 4 µg/mL (≈ 9.23 µM) | 2 µg/mL (≈ 4.61 µM) | 4 µg/mL (≈ 9.23 µM) | 2 µg/mL (≈ 4.61 µM) | 256 µg/mL (≈ 591 µM) | 8 µg/mL (≈ 18.5 µM) | 2 µg/mL (≈ 4.61 µM) | –
4 | O=C(N[C@H](CO)[C@H](O)c1ccc([N+](=O)[O-])cc1)C(Cl)Cl [CHLORAMPHENICOL] | 32 µg/mL (≈ 99 µM) | – | – | – | 32 µg/mL (≈ 99 µM) | 16 µg/mL (≈ 49.5 µM) | 16 µg/mL (≈ 49.5 µM) | – | 32 µg/mL (≈ 99 µM) | 32 µg/mL (≈ 99 µM) | 16 µg/mL (≈ 49.5 µM) | – | 8 µg/mL (≈ 24.8 µM) | 32 µg/mL (≈ 99 µM) | 32 µg/mL (≈ 99 µM) | MIC (Staphylococcus aureus [10]): 33 µM (≈ 10.7 µg/mL); MIC (Staphylococcus aureus [11]): 14 µM (≈ 4.52 µg/mL); MIC (Staphylococcus aureus [12]): 67 µM (≈ 21.6 µg/mL); MIC (Staphylococcus aureus [13]): 33 µM (≈ 10.7 µg/mL); MIC (Staphylococcus aureus [14]): 14 µM (≈ 4.52 µg/mL); MIC (Staphylococcus aureus [15]): 14 µM (≈ 4.52 µg/mL); MIC (Staphylococcus aureus [16]): 67 µM (≈ 21.6 µg/mL); MIC (Staphylococcus aureus [17]): 33 µM (≈ 10.7 µg/mL)
